In assay [1] the test system is EA.hy926 (Human endothelial cells). As to the kind of experiment: Cell migration by scratch assay in endothelial cells. The class given is cell-based. The conditions noted are these: Homo sapiens, read-out: Inhibition of migration with respect to untreated; for inhibition at 0.0001 µM: 0.1 nM; for inhibition at 0.001 µM: 1 nM; for inhibition at 0.0025 µM: 2.5 nM; for inhibition at 0.005 µM: 5 nM; for inhibition at 0.01 µM: 10 nM. How it is done: EA.hy296 cells were counted using hemocytometer and plated in 6-well plates at the density of 0.5×10^6 cells/well. The cells were incubated overnight under growth conditions as described above so as to allow cell recovery and exponential growth. Following overnight incubation, a small linear scratch (representative wound) was created in the confluent monolayer (middle of the well) by gently scraping with sterile 200 μl micropipette tip. Photomicrographs of the scratch were taken at 0 h (Initial time point). Cells were rinsed with serum free DMEM and grouped for treatment in two different serum conditions:
• Baseline control: Cells+DMEM • Positive/Validation control: Baseline control+Positive Control. Test: Baseline control+Test Item
• Baseline control: Cells+DMEM+1% FBS • Positive/Validation control: Baseline control+Positive Control. • Test: Baseline control+Test item
Photomicrographs of the scratch were taken at 24 h-72 h time points. The photomicrographs obtained in the above step were analyzed for quantitative assessment of area of wound closure using ImageJ tool software. Percentage migration with respect to untreated cells at different time points was calculated.

Assay [2] has the same test system. Put plainly: endothelial cell proliferation by MTT assay. It counts as cell-based. The conditions noted are these: 72 h. How it is done:
The cell line used for the study was EA.hy926 (Human endothelial cells) which was procured from National Centre for Cell Science, Pune (India). The cell line was maintained in DMEM+10% FBS (heat inactivated) at 37° C. with 5% CO2, and 95% humidity. […] Untreated cells with complete medium (10% FBS) served as complete medium control, cells with sera free medium served as SFM control and the cells treated with Paclitaxel served as positive control.
The percentage cytotoxicity corresponding to each treatment was calculated.

Assay [3] deals with PANC-1 (Pancreas/duct epithelioid carcinoma). As to the kind of experiment: Xenograft study. The class given is in vivo, mice. Conditions: PANC-1 xenograft, IP. From the text: (§1) The Xenograft models used were HT-29, KB, PA-1, MCF-7, PANC-1, T24 and MDA-MB-231. The basic study design for the Xenograft study was as follows: • 1. Cell maintenance and cell suspension preparation • 2. Aseptic injection of tumor cell suspension in the donor animal • 3. Randomization of animals in respective groups • 4. IP dosing of test items in predetermined doses • 5. IP administration of standard • 6. After completion of dosing period. • 7. The Tumor volume recording weekly twice while body weight and clinical signs daily.

Assay [4] concerns HT-29 (Colorectal cancer). Put plainly: Xenograft study. The class given is in vivo, mice. The conditions noted are these: HT-29 xenograft, IP.
Text: as §1

The test system of assay [5] is neovascularization of Matrigel plug containing FGF-2 (bFGF). Put plainly: Matrigel plug assay (in-vivo anti-angiogenesis). Set-up: species or system C57BL/6 mice. Conditions: G3, 55 mg/Kg, qdx15. How it is done:
Healthy C57BL/6 mice were selected and grouped on the basis of body weight into […] (G1-G4, n=7). Each mouse of group G2-G4 was subcutaneously injected at right flank region with 500 μl of matrigel containing 500 ng of FGF-2 (bFGF). Whereas mice of G1 group were subcutaneously injected at right flank region with 500 μl of matrigel only. In this assay, angiogenesis-inducing compounds such as bFGF was introduced into cold liquid Matrigel which, after subcutaneous injection, solidified and permits penetration by host cells and the formation of new blood vessels (neovascularization).
Required amount of test items were taken and added to an appropriate volume of Tris Buffered Saline (TBS) to achieve the required concentrations. The dose volume given to animal was 10 mL/Kg.
Daily cage-side observations were carried out to detect any clinical signs or mortality and recorded throughout the experiment period.

Like-named read-outs stand apart in the source and are kept apart here.

As to `CC(=O)O[C@H]1C(=O)[C@@]2(C)[C@H]([C@H](OC(=O)c3ccccc3)[C@]3(O)C[C@H](OC(=O)[C@H](O)[C@@H](NC(=O)c4ccccc4)c4ccccc4)C(C)=C1C3(C)C)[C@]1(OC(C)=O)CO[C@@H]1C[C@@H]2O` [Paclitaxel, reference compound], the inhibition at 0.0001 µM was -1.1% in assay [1] (EA.hy 926, 24 h, 24 h, 1% FBS); 26.5% in assay [1] (EA.hy 926, 24 h, 24 h, SFM); -0.2% in assay [1] (EA.hy 926, 48 h, 48 h, 1% FBS); 21.1% in assay [1] (EA.hy 926, 48 h, 48 h, SFM); 7.8% in assay [1] (EA.hy 926, 72 h, 72 h, SFM). The inhibition at 0.001 µM in assay [1] (EA.hy 926, 24 h, 24 h, 1% FBS) turned out to be 7.8%; in assay [1] (EA.hy 926, 24 h, 24 h, SFM) it was 28.5%; in assay [1] (EA.hy 926, 48 h, 48 h, 1% FBS), 2.1%; in assay [1] (EA.hy 926, 48 h, 48 h, SFM), 36.8%; in assay [1] (EA.hy 926, 72 h, 72 h, SFM), 32.7%; in assay [2] (Homo sapiens, EA.hy 926, 1 nM, read-out: % inhibition of FBS stimulated cell growth), 42%. For the same compound, the inhibition at 0.0025 µM was 25.9% in assay [1] (EA.hy 926, 24 h, 24 h, 1% FBS); 51.4% in assay [1] (EA.hy 926, 24 h, 24 h, SFM); 18.3% in assay [1] (EA.hy 926, 48 h, 48 h, 1% FBS); 51.6% in assay [1] (EA.hy 926, 48 h, 48 h, SFM); 42.8% in assay [1] (EA.hy 926, 72 h, 72 h, SFM). Further, the inhibition at 0.005 µM in assay [1] (EA.hy 926, 24 h, 24 h, 1% FBS) came out at 25%; in assay [1] (EA.hy 926, 24 h, 24 h, SFM), 43.7%; in assay [1] (EA.hy 926, 48 h, 48 h, 1% FBS), 10.6%; in assay [1] (EA.hy 926, 48 h, 48 h, SFM), 45.2%; in assay [1] (EA.hy 926, 72 h, 72 h, SFM) it was 47.3%. Moreover, the inhibition at 0.01 µM in assay [1] (EA.hy 926, 24 h, 24 h, 1% FBS) stood at 44.4%; in assay [1] (EA.hy 926, 24 h, 24 h, SFM) it was 58.9%; in assay [1] (EA.hy 926, 48 h, 48 h, 1% FBS), 37.2%; in assay [1] (EA.hy 926, 48 h, 48 h, SFM), 60.2%; in assay [1] (EA.hy 926, 72 h, 72 h, SFM), 56.3%; in assay [2] (Homo sapiens, EA.hy 926, 10 nM, read-out: % inhibition of FBS stimulated cell growth), 44.7%. Further, the “Mean (MTT absorbance)” value in assay [2] (1 nM) stood at 0.93; in assay [2] (10 nM), 0.89; in assay [2] (100 nM), 0.57; in assay [2] (1000 nM) it was 0.45. The inhibition at 0.1 µM in assay [2] (Homo sapiens, EA.hy 926, 100 nM, read-out: % inhibition of FBS stimulated cell growth) was 64.5%. Further, the inhibition at 1 µM in assay [2] (Homo sapiens, EA.hy 926, 1000 nM, read-out: % inhibition of FBS stimulated cell growth) worked out at 71.7%.
Consider `Nc1ccn([C@@H]2O[C@H](CO)[C@@H](O)C2(F)F)c(=O)n1` [Gemcitabine, reference compound], for which, in assay [3], the “Maximum Tumor Growth Inhibition (%)” value is recorded as 61.49% and the “Tumor Volume (mm^3) (Mean ± SEM)” value is 503.93 ± 151.27 mm^3.
Turning to `O=c1[nH]cc(F)c(=O)[nH]1` [5-Fluorourasil, reference compound], in assay [4], the “Maximum Tumor Growth Inhibition (%)” value is given as 62.94% and the “Tumor Volume (mm^3) (Mean ± SEM)” value stood at 1362 ± 155 mm^3.
In the case of `CCN(CC)CCNC(=O)c1c(C)[nH]c(/C=C2\C(=O)Nc3ccc(F)cc32)c1C` [Sunitinib, reference compound], in assay [5] (p.o.), the “Hemoglobin Content in the Matrigel Plug Section, Mean” value came out at 21.92 and the “reduction in hemoglobin content in homogenate of Matrigel plug compared to positive control” value is 59.2%. For the same compound, in assay [5], the “Histological Observation, Fat cell Infiltration, Mean” value stood at 0.71; the “Histological Observation, Fibroblast Infiltration, Mean” value was determined as 2.43; the “Histological Observation, MN cell Infiltration, Mean” value worked out at 1.57; the “Histological Observation, Neovascularization, Mean” value is given as 1.14.

These data come from patent US20230348564A1, “ANTI-CANCER PROTEINS” (UNICHEM LABORATORIES LTD, priority 2020, published 2023).
